# Earlier results, collected in patent US9226893B2, “Method for storing silica-based material, package produced with the method and use of package for packaging of silica-based products” (DelSiTech Oy, priority 2006, dated 2016).
substance,measurement,setting,value
"lysozyme: Lysozyme released from sol-gel derived silica gel (literature, Wilson et al.)",activity of released lysozyme,"gel let to dry and age simultaneously, within few weeks",substantially reduced
same,amount of biologically active lysozyme relative to total amount of released lysozyme,"silica gel which had not dried, with or without protective agent",~100%
